Measurements from patent US5776892A, “Anti-inflammatory peptides” (Curative Health Services, Inc., priority 1994, dated 1998).
No end group written: not given here.

Test system: arachidonic acid induced inflammation in mouse ear
Experiment: Mouse ear model, arachidonic acid (AA) induced inflammation, ear thickness
Type: in vivo
Experimental: The anti-inflammatory properties of CT-112 (SEQ. ID NO: 1) were assessed using a standardized assay for anti-inflammatory activity, i.e., the mouse ear model in which arachidonic acid (AA) is used to induce an inflammatory reaction (Young et al., 1984, J. Invest. Dermatol. 82:367-371; Doherty, et al., 1988, J. Invest. Dermatol. 91:298-302).
Female mice (C57BL/6UAF, Charles River Breeding Laboratories, approximately 15-18 g) were obtained and acclimated for 2 weeks prior to use. The animals were approximately 14 weeks old at the start of the study.
To prepare minipumps for implantation, CT-112 (SEQ. ID NO: 1) was dissolved in PBS. The material was loaded into Alzet minipumps set to deliver 0.05 (5 animals), 0.1 (10 animals), 1 (10 animals), or 2.5 (5 animals) mg of CT-112 (SEQ. ID NO: 1) per animal per day. Minipumps for implantation into control animals contained only PBS. As a positive control, one set of 10 mice received 100 mg/kg of phenidone, a potent 5-lipoxygenase inhibitor which acts as an anti-inflammatory agent, 15 min prior to challenge with AA.
For subcutaneous implantation of minipumps, animals were anesthetized with Ketamine/Xylazine. The Ketamine (Aveco Lot #440140) was injected at 80 mg/kg and the Xylazine (Rugby Laboratories Lot #26040-B) at 16 mg/kg and the Alzet pumps were implanted subcutaneously in the dorsothoracic area. Animals were allowed to recover and then housed and given food and water ad libitum for 5 days.
On the sixth day following pump implantation, 0.01 ml of AA was applied to the inner and outer surfaces of the right ear by means of an automatic microliter pipette. One hr following AA application, the mice were sacrificed and ear thickness was measured with a Mitutoyo No. 7300 Gauge Caliper. The left ears were also measured as an internal control.
Mice were implanted with Alzet mini-pumps set to deliver 60 mg/kg/day for either 7, 3, or 1 days. A separate group of 5 mice received 3 intraperitoneal injections of CT-112 (60 mg/kg/injection) at 24, 1 and 0.25 hr prior to AA challenge. CT-112 (SEQ. ID NO: 1) was prepared for injection by dissolving the compound in Dulbecco's PBS to give a final CT-112 (SEQ. ID NO: 1) concentration of 5 mg/ml. The control mice were implanted with Alzet minipumps that delivered PBS for 7 days. The AA challenge was the same as described supra in Example 7.
Administration of CT-112 (SEQ. ID NO: 1) (60 mg/kg/injection) via multiple intraperitoneal injections was performed at the following times prior to AA challenge:
In addition, the effect of a single administration of CT-112 (SEQ. ID NO: 1) (60 mg/kg) by intraperitoneal injection was performed at either 1 or 3 hr prior to AA challenge. Control mice had Alzet minipumps implanted to deliver PBS for 7 days prior to AA challenge. The AA challenge was the same as described supra in Example 7. The results of the multiple dosing regimens and the 1 hr and 3 hr single dosing regimens were compared to the anti-inflammatory activity of CT-112 (SEQ. ID NO: 1) delivered via Alzet minipump set to deliver 60 mg/kg/day for 7 days using 5 animals per treatment.
In a separate experiment, the effect of multiple intraperitoneal injections of CT-112 (SEQ. ID NO: 1) at either 6, 3, 1 and 0.25 hr, or 16, 3, 1 and 0.25 hr prior to AA challenge was assessed. The results of both multi-dosing regimens were compared to both phenidone (100 mg/kg administered 15 min prior to AA challenge) and CT-112 (SEQ. ID NO: 1) administered via Alzet mini-pump (60 mg/kg/day for 7 days). For this latter study, the number of animals receiving the single injection of CT-112 (SEQ. ID NO: 1) was increased from 5 to 10.
Administration to mice of CT-112 (SEQ. ID NO: 1) (60 mg/kg/injection) via multiple subcutaneous injections prior to AA challenge was performed at:
In addition, other mice received only a single subcutaneous injection of CT-112 (SEQ. ID NO: 1) (60 mg/kg) at either 3 or 1 hr prior to AA challenge. […]

| Compound | % Reduction of Ear Swelling (Table I, phenidone 100 mg/kg, 15 min prior to AA) [%] | % Inhibition (Table XII, 60 mg/kg/day via Alzet pump for 24 hr) [%] | Thickness Difference (Left-Right) (Table XIII, 60 mg/kg/day via Alzet pump for 24 hr) [in] |
| --- | --- | --- | --- |
| O=C1CCN(c2ccccc2)N1 [Phenidone, reference compound] | 84.1 | – | – |
| TTSHVKPQ [CT-135, ID; NO; 20] | – | 73 | 0.00178 ± 0.00073 |
